One may read the AC50 as the concentration at which the activity in the assay is half-maximal. Broadly, the EC50 is the concentration that produces a half-maximal response.

These results are taken from ChEMBL document CHEMBL1201862, “PubChem BioAssay data set” (2004).

One test deals with Cytochrome P450 3A4 (Homo sapiens, UniProt P08684).
For another test, the target named is Cytochrome P450 2C9 (Homo sapiens, UniProt P11712).
A short description of test [1]: Luminescence Cell-Based Dose Confirmation HTS to Identify Activators of 5'UTR Stem-Loop Driven Alpha-Synuclein mRNA Translation in H4 Neuroglioblastoma Cells. [Related pubchem assays: 1829 (Project Summary), 1814 (Primary HTS)]. The test is classed as functional.
Test [2] is described as follows: Luminescence Cell-Based Dose Response HTS to Identify Activators of Luciferase Translation or Activity in H4 […] Cells. [Related pubchem assays: 1829 (Project Summary), 1814 (Primary HTS)]. The format is functional.
Another test deals with H4. Description: Luminescence Cell-Based Dose Response HTS to Identify Activators of 5'UTR Stem-Loop Driven Prion Protein mRNA Translation in H4 Neuroglioblastoma Cells. [Related pubchem assays: 1829 (Project Summary), 1814 (Primary HTS)]. The format is functional. The note with it: Homo sapiens.
The target in the next test is Cytochrome P450 2C19 (Homo sapiens, UniProt P33261). The test can be described thus: Cytochrome panel assay with activity outcomes. Panel member name: p450-cyp2c19 Compounds with AC50 equal or less than 10 uM are considered active. The format is functional. The note with it: read-out: AC50.
For the next test, the target named is T1, Cytochrome P450 1A2 (Homo sapiens, UniProt P05177).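 Also: PubChem cytochrome P450 panel assay, CYP1A2 panel member.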
T1 sequence (P05177 whole entry): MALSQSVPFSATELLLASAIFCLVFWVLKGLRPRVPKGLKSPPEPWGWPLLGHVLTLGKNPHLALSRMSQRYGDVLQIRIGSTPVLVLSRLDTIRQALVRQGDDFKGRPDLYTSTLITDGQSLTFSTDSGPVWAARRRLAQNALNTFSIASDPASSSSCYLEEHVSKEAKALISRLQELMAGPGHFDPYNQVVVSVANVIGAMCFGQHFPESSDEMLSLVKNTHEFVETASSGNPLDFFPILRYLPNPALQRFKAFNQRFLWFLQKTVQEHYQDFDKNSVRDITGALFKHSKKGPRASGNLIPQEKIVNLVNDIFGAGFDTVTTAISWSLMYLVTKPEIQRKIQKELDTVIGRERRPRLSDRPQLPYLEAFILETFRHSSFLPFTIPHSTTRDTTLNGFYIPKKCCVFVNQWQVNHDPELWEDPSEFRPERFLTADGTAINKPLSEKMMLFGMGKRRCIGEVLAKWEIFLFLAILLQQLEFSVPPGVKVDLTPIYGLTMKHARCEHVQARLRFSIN

Test [3] is described as follows: NIH-3T3 fibroblast cytotoxicity, dose response, cytotoxicity control, cell-based, fluorescence, Alamar Blue, secondary assay (AID 2327).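 Also: NIH-3T3 mouse fibroblasts cultured with fluconazole at 8 µg/mL.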 The format is functional. In general terms: The colour change of resazurin is a common sign of viable cells or microbes.
Test [4] has as its target T2, Heat shock factor protein 1 (Mus musculus, UniProt P38532).
T2 sequence (P38532 whole entry): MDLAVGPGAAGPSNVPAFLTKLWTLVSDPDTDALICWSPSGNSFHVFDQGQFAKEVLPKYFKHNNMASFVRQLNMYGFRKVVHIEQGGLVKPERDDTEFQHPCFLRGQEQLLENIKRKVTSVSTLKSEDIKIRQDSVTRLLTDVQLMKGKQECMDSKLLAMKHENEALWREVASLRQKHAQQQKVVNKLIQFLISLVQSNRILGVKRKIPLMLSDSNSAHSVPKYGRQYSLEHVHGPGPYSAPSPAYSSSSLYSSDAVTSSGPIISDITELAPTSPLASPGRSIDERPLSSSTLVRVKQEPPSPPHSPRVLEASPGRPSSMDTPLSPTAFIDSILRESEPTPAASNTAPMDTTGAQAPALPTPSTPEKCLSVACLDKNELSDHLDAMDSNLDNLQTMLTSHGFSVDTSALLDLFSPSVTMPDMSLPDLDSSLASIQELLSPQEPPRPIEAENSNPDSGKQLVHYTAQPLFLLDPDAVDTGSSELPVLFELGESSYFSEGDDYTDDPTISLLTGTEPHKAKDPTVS
The test can be described thus: HSF1 potentiators in luciferase reporter cells, confirmation, cell-based, NIH3T3, luminescence, dose retest (AID 435004).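 Also: stress induced by proteasome inhibitor MG132 added 30 min after compound; luciferase reporter driven by HSF1 response element in NIH3T3 cells; actives raise luminescence as potentiators of the MG132 stress response.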 The test is classed as functional. Background: A reporter such as luciferase makes a cellular process visible.

Test [5] deals with T2, Heat shock factor protein 1. Description: inhibition of MG132-induced HSE-luciferase signal, confirmation, cell-based, NIH3T3, luminescence, dose retest (AID 2382).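 Also: NIH3T3 fibroblasts with HSF1-driven luciferase reporter stressed by proteasome inhibitor MG132; luminescence from HSF1-driven luciferase expression after 8 hours of MG132 stress.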 The test is classed as functional.

The source made the active and inactive calls.

Cytochrome P450 2C9, sequence (P11712 whole entry): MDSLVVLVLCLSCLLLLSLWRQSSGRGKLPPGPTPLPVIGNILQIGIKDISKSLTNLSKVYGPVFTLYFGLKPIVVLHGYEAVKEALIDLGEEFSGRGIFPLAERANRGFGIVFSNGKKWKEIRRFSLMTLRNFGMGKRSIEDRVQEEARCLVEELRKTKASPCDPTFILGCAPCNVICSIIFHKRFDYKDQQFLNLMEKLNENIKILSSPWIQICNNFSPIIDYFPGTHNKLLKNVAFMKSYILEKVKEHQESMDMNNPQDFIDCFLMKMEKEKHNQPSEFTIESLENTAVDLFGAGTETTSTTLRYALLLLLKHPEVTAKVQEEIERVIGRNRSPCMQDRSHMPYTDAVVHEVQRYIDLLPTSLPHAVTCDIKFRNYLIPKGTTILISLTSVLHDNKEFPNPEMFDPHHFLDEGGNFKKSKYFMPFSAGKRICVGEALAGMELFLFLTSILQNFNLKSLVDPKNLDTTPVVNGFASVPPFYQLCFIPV
Cytochrome P450 2C19, sequence (P33261 whole entry): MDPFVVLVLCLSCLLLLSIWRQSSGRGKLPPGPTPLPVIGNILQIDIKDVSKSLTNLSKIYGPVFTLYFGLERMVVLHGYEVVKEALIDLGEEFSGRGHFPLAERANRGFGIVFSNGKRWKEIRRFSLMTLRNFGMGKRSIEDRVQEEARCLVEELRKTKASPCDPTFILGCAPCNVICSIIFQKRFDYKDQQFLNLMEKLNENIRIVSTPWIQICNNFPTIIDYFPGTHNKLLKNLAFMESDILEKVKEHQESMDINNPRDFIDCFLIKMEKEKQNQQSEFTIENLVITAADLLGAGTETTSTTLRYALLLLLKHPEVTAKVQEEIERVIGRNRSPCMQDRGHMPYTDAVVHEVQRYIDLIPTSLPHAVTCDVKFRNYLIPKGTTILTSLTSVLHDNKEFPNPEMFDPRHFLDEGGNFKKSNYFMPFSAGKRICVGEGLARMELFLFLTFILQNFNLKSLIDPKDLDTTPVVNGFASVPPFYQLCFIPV
Cytochrome P450 3A4, sequence (P08684 whole entry): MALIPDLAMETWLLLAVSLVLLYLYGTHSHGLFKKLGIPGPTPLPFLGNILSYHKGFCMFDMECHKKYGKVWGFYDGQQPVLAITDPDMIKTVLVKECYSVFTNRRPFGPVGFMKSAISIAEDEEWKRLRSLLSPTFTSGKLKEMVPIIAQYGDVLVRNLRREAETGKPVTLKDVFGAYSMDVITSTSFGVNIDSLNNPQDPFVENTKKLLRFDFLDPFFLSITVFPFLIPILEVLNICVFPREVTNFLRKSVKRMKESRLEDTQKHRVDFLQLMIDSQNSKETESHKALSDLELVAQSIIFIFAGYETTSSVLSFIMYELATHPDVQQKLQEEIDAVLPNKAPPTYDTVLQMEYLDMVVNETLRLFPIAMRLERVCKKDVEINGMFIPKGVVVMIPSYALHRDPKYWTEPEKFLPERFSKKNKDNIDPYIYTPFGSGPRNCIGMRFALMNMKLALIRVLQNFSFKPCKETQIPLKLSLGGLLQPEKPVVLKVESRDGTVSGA

As for `N#CCCn1c(=O)c(-c2cc(F)cc(F)c2)nc2cnc(OCc3ccccc3)nc21`, the concentration at half-maximal activity (AC50) on Cytochrome P450 3A4 was 15.8 µM (inconclusive); on Cytochrome P450 2C9, 3.16 µM (inconclusive).

For `CC(C)CC1NC(=O)N(CC(=O)c2ccc3c(c2)OCCO3)C1=O` (stereo not drawn), the concentration for a half-maximal effect (EC50) in [1] is 0.298 µM (active); in test [2] it was 1.48 µM (active); with H4, 6.39 µM (active).

On to `CC1=NC(=O)C(N=Nc2cccc(O)c2)N1c1ccccc1` (stereo not drawn), for which the EC50 in [1] is 15.5 µM (active); in test [2], 13.7 µM (active); in the test with H4 it was 20.2 µM (active).

Take `NS(=O)(=O)c1cc2c(cc1Cl)N=C(CSCc1ccccc1)NS2(=O)=O` [BENZTHIAZIDE]: the half-maximal activity concentration (AC50) at Cytochrome P450 2C9 was 3.98 µM (inconclusive).

With `COC(=O)C(CCSC)NC(=O)c1cccc([N+](=O)[O-])c1` (stereo not drawn), at Cytochrome P450 2C9, the AC50 was 2 µM (inconclusive).

With `CCCC[C@H]1C(=O)N(c2ccccc2)N(c2ccc(O)cc2)C1=O`, the AC50 on Cytochrome P450 2C19 is 15.8 µM (inconclusive); at Cytochrome P450 1A2 it was 0.001 µM (inconclusive); at Cytochrome P450 2C9, 12.6 µM (inconclusive).

For the compound `CCn1c(SCC(=O)Nc2ccc(C(C)=O)cc2)nc2nc3c(cc2c1=O)COC(C)(C)C3`, the EC50 was > 120 µM (not active) in [1], 32.9 µM (active) in test [2] and 12.8 µM (active) in the test on H4.

With `CCOC(=O)c1c(C)n[nH]c1N/N=C/c1cccnc1`, the EC50 was > 120 µM (not active) in [1], 14.7 µM (active) in test [2] and > 120 µM (not active) in the test with H4.

For the compound `CN(C)c1ncc2nc(-c3ccccc3)c(=O)n(Cc3cccs3)c2n1`, the AC50 is 15.8 µM (inconclusive) on Cytochrome P450 3A4 and 10 µM (inconclusive) on Cytochrome P450 2C9.

Consider `CC(=O)C1=NOC(CNc2ncc(C(F)(F)F)cc2Cl)C1` (stereo not drawn), for which the 50% effective concentration (EC50) in test [1] was 15.7 µM (active); in [2], 17 µM (active); in the test on H4, 16.2 µM (active).

On to `O=C(NN=C1C2CC3CC1CC(Cl)(C3)C2)c1ccccn1`, for which the 50% effective concentration (EC50) (in test [1]; in test [2]; with H4) was > 120 µM (not active) in each case.

For `CC(=O)N1CCc2cc(S(=O)(=O)NCCC(=O)Nc3ccc4c(c3)OCCO4)ccc21`, the EC50 is 17.4 µM (active) in test [1], 9.85 µM (active) in test [2] and 25.6 µM (active) with H4.

Turning to `CC(C(=O)c1c[nH]c2ccccc12)N1CCSCC1` (stereo not drawn), the concentration at half-maximal activity (AC50) on Cytochrome P450 2C9 was 31.6 µM (inconclusive).

With `COc1ccc(COc2cc(-c3cccc(OC)c3)nc3ccc(NC(=O)C(C)C)cc23)cc1`, the half-maximal effective concentration (EC50) (in test [1]; in [2]; with H4) was > 120 µM (not active) throughout.

For the compound `CC(O)(CS(=O)(=O)c1ccccc1)C(=O)Nc1cccc(C(F)(F)F)c1` (stereo not drawn), the AC50 at Cytochrome P450 2C9 was 35.5 µM (inconclusive).

On to `CC1(C)C2CC=C(/C=N/NC(=O)c3ccc(Cl)cc3)C1C2` (stereo not drawn), for which the half-maximal effective concentration (EC50) was > 120 µM (not active) in test [1], 12.4 µM (active) in test [2] and > 120 µM (not active) with H4.

`Cc1nn(C(=O)c2ccoc2C)c(N)c1-c1ccccc1`: the concentration giving a half-maximal response (EC50) in test [1] was 5.93 µM (active); in [2] it was 26.9 µM (active); with H4 it was 21.6 µM (active).

Consider `Cc1cccc(CCNc2nc3ccc(C)cc3n3cnnc23)c1`, for which the EC50 in [1] is 0.258 µM (active); in test [2], 33.2 µM (active); with H4 it was 7.16 µM (active).

As to `N#CCCn1c(=O)c(-c2cccc(C#N)c2)nc2cnc(Oc3cccc(Cl)c3)nc21`, on Cytochrome P450 2C9, the AC50 was 12.6 µM (inconclusive).

With `COCCN=C(S)N1C2CCC1CC(NC(=O)NC13CC4CC(CC(C4)C1)C3)C2` (stereo not drawn), the half-maximal activity concentration (AC50) at Cytochrome P450 2C19 was 20 µM (inconclusive); on Cytochrome P450 2C9 it was 14.1 µM (inconclusive).

Turning to `CC(O)(CS(=O)(=O)Cc1ccccc1Cl)C(=O)Nc1cccc(C(F)(F)F)c1` (stereo not drawn), the AC50 at Cytochrome P450 2C9 is 11.2 µM (inconclusive).

Turning to `O=C(O)/C=C\c1c2ccc(=O)c(O)c-2oc2c(O)c(O)ccc12`, the figures for the AC50 at Cytochrome P450 2C19 and on Cytochrome P450 2C9 were 3.16 µM (inconclusive) and 7.94 µM (inconclusive), respectively.

For the compound `Clc1ccc2c(c1)[C@H]1OCC[C@H]1[C@@H](c1ccco1)N2`, the concentration giving a half-maximal response (EC50) in [1] is 19.9 µM (active); in test [2] it was 10.9 µM (active); in the test with H4, 9.48 µM (active).

Regarding `COc1ccc(N2CCN(Cc3nc4c(c(=O)[nH]c(=O)n4C)n3CCCc3ccccc3)CC2)cc1`, the AC50 is 28.2 µM (inconclusive) at Cytochrome P450 2C19 and 39.8 µM (inconclusive) on Cytochrome P450 2C9.

`Cn1c(=O)cc(OCC(=O)NCc2cccnc2)c2ccccc21`: the AC50 at Cytochrome P450 1A2 is 1.58 µM (inconclusive); at Cytochrome P450 2C9, 14.1 µM (inconclusive).

Consider `Cc1ccc2nsnc2c1NC(=O)COc1ccccc1F`, for which the EC50 in test [3] was > 150 µM (inconclusive).

On to `O=C(O)CCc1ccc(-c2ccc(Cl)cc2)n1CCC(=O)O`, for which the AC50 on Cytochrome P450 2C9 was 31.6 µM (inconclusive).

Regarding `CCCSc1nnc2n(-c3ccccc3OC)c(=O)c3c4c(sc3n12)CCC4`, the EC50 in test [4] is > 260 µM (inactive).

Regarding `COc1ccc(Oc2ncc3nc(C)c(=O)n(-c4ccc(OC)cc4)c3n2)cc1`, the AC50 at Cytochrome P450 2C9 was 39.8 µM (inconclusive).

On to `Cc1ccc(-c2nc(-c3cccnc3)no2)c(C)c1`, for which the EC50 in test [3] was > 150 µM (inactive).

With `CCn1c(Cn2nnc(-c3ccccc3)n2)nnc1SCC(=O)Nc1ccc(C(C)=O)cc1`, the concentration giving a half-maximal response (EC50) was > 120 µM (not active) in test [1], 71.4 µM (active) in [2] and 16.1 µM (active) with H4.

For the compound `Nn1c(SCC(=O)N2CCOCC2)nnc1C1CC1`, in test [4], the EC50 was > 260 µM (inactive).

In the case of `COc1cccc(-c2csc(NC(=O)Nc3ccccc3)n2)c1`, the EC50 in test [1] is > 120 µM (not active); in test [2] it was 11.1 µM (active); in the test with H4 it was 18.9 µM (active); in test [5], > 195 µM (not active).

In the case of `CCC1Oc2ccc(C)cc2N(Cc2cccc(C)c2)C1=O` (stereo not drawn), in [4], the EC50 was > 260 µM (inactive).

With `Cc1nn(CC(=O)c2ccccc2Cl)c(C)c1[N+](=O)[O-]`, the EC50 is 38.2 µM (active) in test [1], 15.8 µM (active) in test [2] and 25.4 µM (active) with H4.

With `Nc1c(-c2ccsc2)cnc2ncnn12`, in test [4], the EC50 was > 260 µM (inactive).

With `CCOc1ccc(NC(=O)C(S)=NC2CCCCC2)cc1`, the concentration for a half-maximal effect (EC50) was 61.6 µM (active) in test [1], 21.1 µM (active) in [2] and 11 µM (active) in the test on H4.

With `O=c1[nH]c2ccccc2c2cn(-c3ccccc3)nc12`, the EC50 in test [4] is 126 µM (active).

`NC(=NOC(=O)c1cccc([N+](=O)[O-])c1)c1cccnc1`: the half-maximal effective concentration (EC50) was 3.61 µM (active) in test [1], 7.46 µM (inconclusive) in test [2] and > 120 µM (not active) with H4.

Turning to `C=CCSC1=C(C#N)C(c2cccc(OC)c2)CC(=O)N1` (stereo not drawn), the EC50 in test [4] is > 260 µM (inactive).

Turning to `CCOc1ccc(-n2c(=S)sc3c(O)nc(SCC(=O)NC(C)CC)nc32)cc1` (stereo not drawn), the EC50 in test [4] is > 260 µM (inactive).

As for `CC(=O)N1c2ccc(S(=O)(=O)N3CCC(C(=O)NCc4ccccc4Cl)CC3)cc2CC1C` (stereo not drawn), the concentration for a half-maximal effect (EC50) (in test [1]; in test [2]; in the test with H4) was > 120 µM (not active) each time.

As to `Cc1cccc(N(C)C(=S)Oc2ccc3ccccc3c2)c1` [TOLNAFTATE], on Cytochrome P450 2C9, the half-maximal activity concentration (AC50) is 1.26 µM (inconclusive).
